Assays:
[1] = system: megakaryocytic precursors; assay: Chemotherapy-induced cell death of megakaryocytic cells; type: cell-based; settings: for sensitivity of mature polynucleated megakaryocytic precursors versus day 6 immature precursors: Etoposide 4 micromolar, Daunorubicin 0.5 micromolar or Vincristine 0.5 micromolar
Experimental: Decreased platelet number is a common side effect of chemotherapy. In a separate set of experiments, the protective effect of SCF on chemotherapy-induced cell death was evaluated on megakaryocytic cells, which derive from hematopoietic stem and progenitor cells and give rise to platelets. […] We pretreated immature megakaryocytic precursors at day 4 of differentiation with SCF for 48 hours before exposure to chemotherapeutic agents. SCF was maintained during the exposure to chemotherapic agents.

[2] = system: day 7 (pro/basophilic) erythroblasts
Experimental: (§1) FIG. 1. Chemosensitivity of CD34^+ progenitors and erythroid precursors.
(§2) FIG. 2. […] After 24 hours the percentage of cell death was determined by ethidium bromide/acridine orange staining.
(§3) Adult peripheral blood human progenitor cell (HPC) purification and culture. Adult peripheral blood was obtained from male donors after their informed consent and the approval by the Committee for Human Studies. Human CD34^+ precursor cells were purified from peripheral blood by positive selection using the midi-MACS immunomagnetic separation system (Miltenyi Biotec, Bergisch Gladbach, Germany) according to the manufacturer's instructions. CD34^+ precursors were cultured in serum-free medium supplemented with 0.01 U/ml interleukin-3 (IL-3), 0.001 ng/ml GM-CSF and 3 U/ml Epo to induce unilineage erythroid differentiation. […] Cell viability was evaluated by ethidium bromide-acridine orange staining and fluorescence microscopy analysis.^15 The differentiation stage of erythroid precursor cells was evaluated by May-Grünwald-Giemsa staining and cytologic analysis. Ziegler B, Testa U, Condorelli G, Vitelli L, Valtieri M, Peschle C. Unilineage hematopoietic differentiation in bulk and single cell culture. Stem Cells. 1998; 16(suppl 1):51-73. For clonogenetic assay, 10^2 CD34^+ cells and 2×10^2 cells from day 5 or day 7 unilineage erythroid cultures were plated in duplicate in 0.9% methylcellulose containing 40% FCS and saturating concentrations of erythropoietin (3 U/mL), TPO (50 ng/mL), granulocyte macrophage-colony stimulating factor (GM-CSF; 10 ng/mL), M-CSF (250 U/mL), G-CSF (500 U/mL), IL-6 (10 ng/mL), stem cell factor (100 ng/mL), Flt3 ligand (100 ng/mL), and IL-3 (100 U/mL). Colonies were scored after 14 days of culture at 37° C. in a 5% CO2/5% O2/90% N2 humidified atmosphere.

[3] = system: caspase 3, caspase 7 and caspase 8
Experimental: as §2
(§4) FIG. 4. […] After 48 hours, 4×10^4 cells were washed and replated in standard erythroid medium with or without 100 ng/ml SCF.
Western blotting. For detection of caspases, protein extracts were prepared by resuspending cell pellets in 1% NP40 lysis buffer (20 mM Tris/HCl pH 7.2, 200 mM NaCl, 1% NP40) in the presence of 1 mM phenylmethylsulphonyl fluoride (PMSF) and 2 μg/ml each of leupeptin, aprotinin and pepstatin. Concentration of lysates was determined by the Bradford assay (Bio-Rad Laboratories, Richmond, Calif.) and equal amounts of proteins were used for SDS-PAGE. Samples were analyzed by standard immunoblot procedure and visualized by chemiluminescence (Super Signal West Pico Pierce, Rockford, Ill.). Quantification of protein expression levels was performed with the NIH IMAGE software version 1.62 (by Wayne Rasband, National Institutes of Health, Research Services Branch, NIMH).

CD34 positive cells = assay: Protection of proliferating CD34 positive cells from chemotherapeutic agents in vitro; type: cell-based
Experimental: as §3

[4] = system: erythroid and granulocytic precursor cells, uncommitted CD34+ progenitors; assay: SCF treatment of purified hematopoietic progenitors and precursors exposed to antineoplastic agents; type: cell-based, human
Excerpt: Purified populations of hematopoietic progenitors and precursors are routinarily obtained in our laboratory through purification of […] cells from peripheral blood and culture in serum-free medium with unilineage growth factors. Hematopoietic progenitor cells display different sensitivity to the cytotoxic effect of chemotherapeutic agents depending on their lineage commitment and stage of maturation. […] The protective effects of SCF are achieved by administrating this cytokine before the cytotoxic treatment, during the course of the treatment itself and after the toxic stimulus has been interrupted. […] Importantly, once the toxic stimulus has been removed, SCF-treated cells re-enter the differentiative pathway, maintaining their ability to complete successfully the normal maturation process.

[5] = system: anti-apoptotic genes belonging to the Bcl-2 family and to the Notch family; assay: Expression of pro- and anti-apoptotic genes in SCF-treated erythroid precursor cells; type: cell-based, human
Excerpt: In order to elucidate the mechanisms responsible for the protective effect of SCF from chemotherapy-induced cell death, we analysed the expression of pro- and anti-apoptotic genes in SCF-treated erythroid precursor cells. SCF induced an upregulation of anti-apoptotic genes belonging to the Bcl-2 family and to the Notch family, as well as an increase in the levels of several transcription factors involved in the control of cellular proliferation and survival.

day 7 erythroblasts = assay: Erythroblast recovery and expansion after removal of cisplatin; type: cell-based
Experimental: as §4

[6] = system: day 7 erythroid culture cells; assay: Clonogenetic assay of erythroid unilineage culture cells in semisolid medium; type: cell-based, human; settings: two-days treatment with 100 ng/ml SCF (day 5 to day 7)
Experimental: FIG. 5. […] (A) Clonogenetic assay of CD34^+ cells (day 0) or cells grown in liquid culture and subsequently plated in semisolid medium at day 5 or day 7 of erythroid differentiation. Control cells (day 5 and day 7 Epo) were cultivated in standard erythroid medium before the colony assay, whereas SCF-treated cells (day 7 Epo+SCF) received 100 ng/ml SCF from day 5 to day 7 of liquid culture. (B) Cytofluorimetric analysis of glycophorin A-positive cells in erythroid unilineage culture. Cells were analyzed after five (day 5) or seven days (day 7) of erythroid differentiation in standard erythroid medium (Epo) or in the same medium supplied with 100 ng/ml SCF starting from day 5 (Epo+SCF).
(§5) Unilineage hematopoietic differentiation in bulk and single cell culture. Stem Cells. 1998; 16(suppl 1):51-73.
SCF supports the selective expansion of erythroid cells in unilineage culture conditions after treatment with chemotherapeutic agents. Theoretically, SCF may promote the growth of non-erythroid cells present in small numbers in erythroblastic cultures, and even specifically protect these contaminants from cytotoxic drugs, thus generating a post-chemotherapy population of non-erythroid cells. […]

Bcl-2 and Bcl-XL = assay: Western blot analysis of Bcl-2 and Bcl-XL levels in day 7 erythroblasts; type: cell-based, human; settings: erythroblasts treated for two days with 100 ng/ml SCF versus standard erythroid medium
[7] = in vivo; cited from earlier work
CD34+ progenitors = assay: Chemosensitivity of CD34+ progenitors, cell death by ethidium bromide/acridine orange staining; type: cell-based, human; settings: CD34+ cells; 24 hours; 1.5 μg/ml cisplatin or 50 ng/ml camptothecin; standard erythroid medium
Excerpt: as §1, §5
(§6) Nature. […] Unilineage hematopoietic differentiation in bulk and single cell culture. Stem Cells. 1998; 16(suppl 1):51-73).

[8] = system: day 14 (orthochromatic) erythroblasts; assay: Chemosensitivity of day 14 erythroblasts, cell death by ethidium bromide/acridine orange staining; type: cell-based; settings: 24 hours, 1.5 μg/ml cisplatin or 50 ng/ml camptothecin
Excerpt: as §1, §5, §6

COc1cc([C@@H]2c3cc4c(cc3[C@@H](O[C@@H]3O[C@@H]5CO[C@@H](C)O[C@H]5[C@H](O)[C@H]3O)[C@H]3COC(=O)[C@H]23)OCO4)cc(OC)c1O [etoposide]
sensitivity of mature polynucleated megakaryocytic precursors versus day 6 immature precursors [1]: more resistant

zVAD-fmk [reference compound]
effect on chemotherapy-induced erythroblast death ([2]; zVAD 40 μM, camptothecin, cisplatin or etoposide, 24 hours): abrogated completely | effect on drug-induced caspase activation ([3]; zVAD 40 μM, day 7 erythroblasts, 8 hours): abolished caspase activation

SCF: haematopoietic growth factor, 18.6 KD, ligand of c-Kit; human recombinant SCF purchased from Peprotech
CD34 positive cells surviving (CD34 positive cells; 3 micrograms/mL Cisplatin, cells induced to proliferate with interleukin-3 (50 units/mL) and fms-like tyrosine kinase 3 (100 nanograms/mL), treated with SCF): about 50% | expansion and clonogenetic output after removal of chemotherapeutic drugs (CD34 positive cells; SCF-treated cells, clonogenetic assays): able to expand and give rise to all the standard hematopoietic populations | protection of CD34 positive cells from cytotoxic activity of chemotherapeutic agents (CD34 positive cells; in vitro, Cisplatin, Etoposide and Daunorubicin): protects | protection from death induced by antineoplastic agents [4]: strong protection | expression of anti-apoptotic genes of the Bcl-2 family and Notch family [5]: upregulation | protection of erythroblasts from toxic effects of antineoplastic drugs ([2]; 100 ng/ml SCF from day 5 for 48 hours and during exposure, camptothecin, cisplatin or etoposide): significantly protected | amount of inactive pro-caspase 3, 7 and 8 versus control erythroblasts ([3]; pretreated two days with SCF, 8 hours camptothecin, cisplatin or etoposide): significantly higher | proliferative activity after removal of the cytotoxic agent (day 7 erythroblasts; SCF day 5-9, 3 μg/ml cisplatin 48 hours, washed, fresh medium): regained full proliferative activity | proliferation of survived erythroid cells with SCF maintained after drug removal (day 7 erythroblasts; SCF day 5-21, 3 μg/ml cisplatin 48 hours): high proliferation rate | survival to cisplatin treatment (day 7 erythroblasts; preincubated two days with 100 ng/ml SCF, 3 μg/ml cisplatin for 48 hours): enhanced survival | growth of erythroid colonies [6]: significant stimulatory effect | percentage of granulo-monocytic colonies [6]: did not significantly increase | Bcl-2 and Bcl-XL protein levels (Bcl-2 and Bcl-XL): upregulated | protection of megakaryocytic cells from toxic effects of antineoplastic drugs ([1]; 100 ng/ml SCF from day 4 for 48 hours and during exposure, Etoposide, Daunorubicin or Vincristine): significantly protected | tolerability of administration [7]: generally well tolerated

N.N.[Cl][Pt][Cl] [cisplatin, reference compound]
death of CD34 positive cells in absence of SCF (CD34 positive cells; 3 micrograms/mL Cisplatin, proliferating cells (interleukin-3, fms-like tyrosine kinase 3), no SCF): virtually all cells die | sensitivity to drug-induced apoptosis (CD34+ progenitors): modest sensitivity

CC[C@]1(O)C[C@H]2CN(CCc3c([nH]c4ccccc34)[C@@](C(=O)OC)(c3cc4c(cc3OC)N(C=O)[C@H]3[C@@](O)(C(=O)OC)[C@H](OC(C)=O)[C@]5(CC)C=CCN6CC[C@]43[C@@H]65)C2)C1 [Vincristine]
sensitivity of mature polynucleated megakaryocytic precursors versus day 6 immature precursors [1]: more resistant | death of early megakaryocytic cells ([1]; day 6 precursors, Vincristine 0.5 micromolar): 100% | death of late megakaryocytic cells ([1]; day 12 precursors, Vincristine 0.5 micromolar): 20%

CC[C@@]1(O)C(=O)OCc2c1cc1n(c2=O)Cc2cc3ccccc3nc2-1 [camptothecin]
sensitivity to drug-induced apoptosis (CD34+ progenitors): modest sensitivity | sensitivity to cytotoxic effect of chemotherapeutic agents ([2]; day 7 immature erythroblasts, 24 hours, 1.5 μg/ml cisplatin or 50 ng/ml camptothecin, saturating Epo): extremely sensitive | sensitivity to cytotoxic effect of chemotherapeutic agents [8]: almost completely resistant | caspase activation by cytotoxic drug ([3]; day 7 erythroblasts, 8 hours, 200 ng/ml camptothecin, 3 μg/ml cisplatin or 5 μM etoposide): activated caspase 3, 7 and 8

COc1cccc2c1C(=O)c1c(O)c3c(c(O)c1C2=O)C[C@@](O)(C(C)=O)C[C@@H]3O[C@H]1C[C@H](N)[C@H](O)[C@H](C)O1 [Daunorubicin]
sensitivity of mature polynucleated megakaryocytic precursors versus day 6 immature precursors [1]: more resistant

Reference: patent publication US7994125B2, “Stem cell factor for preventing chemotherapy-induced depletion of blood cells” (Istituto Superiore Di Sanita, priority 2003, dated 2011)
